Results on 24 compounds are retold here after ChEMBL document CHEMBL5291721, “A preclinical secondary pharmacology resource illuminates target-adverse drug reaction associations of marketed drugs” (Nat Commun, 2023).

For assay [1], the target named is Vascular endothelial growth factor receptor 2 (Homo sapiens, UniProt P35968). It is filed as functional.
The target of assay [2] is T1, Adenosine receptor A3 (Homo sapiens, UniProt P0DMS8).
T1 sequence (P0DMS8 whole entry): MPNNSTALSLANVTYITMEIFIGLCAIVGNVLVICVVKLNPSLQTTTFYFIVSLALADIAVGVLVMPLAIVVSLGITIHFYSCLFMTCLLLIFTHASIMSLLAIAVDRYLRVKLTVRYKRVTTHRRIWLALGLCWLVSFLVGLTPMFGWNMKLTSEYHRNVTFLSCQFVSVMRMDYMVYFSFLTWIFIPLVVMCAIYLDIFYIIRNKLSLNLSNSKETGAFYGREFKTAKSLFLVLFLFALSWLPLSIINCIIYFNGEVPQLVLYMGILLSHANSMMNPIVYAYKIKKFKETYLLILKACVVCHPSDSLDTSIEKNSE

Assay [3] has as its target Glutamate receptor ionotropic, NMDA 1 (Rattus norvegicus, UniProt P35439).
For assay [4], the target named is T2, Thromboxane A2 receptor (Homo sapiens, UniProt P21731).
T2 sequence (P21731 whole entry): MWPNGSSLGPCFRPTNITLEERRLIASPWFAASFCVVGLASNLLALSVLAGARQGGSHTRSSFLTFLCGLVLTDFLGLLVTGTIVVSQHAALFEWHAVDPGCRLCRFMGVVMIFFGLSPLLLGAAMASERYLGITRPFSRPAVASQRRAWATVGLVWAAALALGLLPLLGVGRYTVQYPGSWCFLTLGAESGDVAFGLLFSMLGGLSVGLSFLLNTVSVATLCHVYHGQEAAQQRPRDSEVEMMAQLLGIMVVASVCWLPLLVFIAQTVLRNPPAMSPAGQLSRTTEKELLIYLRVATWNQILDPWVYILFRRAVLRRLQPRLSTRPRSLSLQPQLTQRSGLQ

Assay [5] deals with Growth hormone secretagogue receptor type 1 (Homo sapiens, UniProt Q92847).
Growth hormone secretagogue receptor type 1, sequence (Q92847 whole entry): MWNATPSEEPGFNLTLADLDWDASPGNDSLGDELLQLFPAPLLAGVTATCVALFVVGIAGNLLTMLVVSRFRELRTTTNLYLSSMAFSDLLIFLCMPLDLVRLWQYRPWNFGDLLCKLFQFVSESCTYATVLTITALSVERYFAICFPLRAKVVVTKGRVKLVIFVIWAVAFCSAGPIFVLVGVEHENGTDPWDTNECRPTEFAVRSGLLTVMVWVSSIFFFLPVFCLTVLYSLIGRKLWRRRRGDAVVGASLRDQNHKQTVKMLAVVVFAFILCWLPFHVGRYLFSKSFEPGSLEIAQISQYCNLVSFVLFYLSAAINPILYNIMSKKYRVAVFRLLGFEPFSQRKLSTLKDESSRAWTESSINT
The target of assay [6] is T3, Gastrin/cholecystokinin type B receptor (Homo sapiens, UniProt P32239).
T3 sequence (P32239 whole entry): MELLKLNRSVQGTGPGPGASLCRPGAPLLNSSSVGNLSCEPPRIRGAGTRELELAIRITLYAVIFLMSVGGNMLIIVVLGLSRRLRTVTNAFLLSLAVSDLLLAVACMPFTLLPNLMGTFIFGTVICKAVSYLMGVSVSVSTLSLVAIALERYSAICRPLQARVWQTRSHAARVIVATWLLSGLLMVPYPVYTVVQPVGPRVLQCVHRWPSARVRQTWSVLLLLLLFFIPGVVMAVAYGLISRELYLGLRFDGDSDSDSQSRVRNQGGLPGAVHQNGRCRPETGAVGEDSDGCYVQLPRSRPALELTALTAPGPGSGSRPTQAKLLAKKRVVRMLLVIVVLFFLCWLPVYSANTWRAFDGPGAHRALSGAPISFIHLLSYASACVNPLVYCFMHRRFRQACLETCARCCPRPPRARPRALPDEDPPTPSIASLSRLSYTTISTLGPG

For assay [7], the target named is Adenosine receptor A2a (Homo sapiens, UniProt P29274).
Adenosine receptor A2a, sequence (P29274 whole entry): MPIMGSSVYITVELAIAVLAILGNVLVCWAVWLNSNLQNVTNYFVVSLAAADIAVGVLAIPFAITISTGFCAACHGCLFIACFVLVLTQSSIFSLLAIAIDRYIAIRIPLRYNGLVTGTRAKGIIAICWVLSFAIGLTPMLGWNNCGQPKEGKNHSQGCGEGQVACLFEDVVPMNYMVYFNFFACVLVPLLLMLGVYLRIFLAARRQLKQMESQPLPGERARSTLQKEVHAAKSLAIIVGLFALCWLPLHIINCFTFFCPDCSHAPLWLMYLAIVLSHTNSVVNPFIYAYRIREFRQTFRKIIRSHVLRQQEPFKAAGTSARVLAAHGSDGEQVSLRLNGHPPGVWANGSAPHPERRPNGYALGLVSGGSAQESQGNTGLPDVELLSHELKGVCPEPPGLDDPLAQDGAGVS
For assay [8], the target named is Delta-type opioid receptor (Homo sapiens, UniProt P41143).
Delta-type opioid receptor, sequence (P41143 whole entry): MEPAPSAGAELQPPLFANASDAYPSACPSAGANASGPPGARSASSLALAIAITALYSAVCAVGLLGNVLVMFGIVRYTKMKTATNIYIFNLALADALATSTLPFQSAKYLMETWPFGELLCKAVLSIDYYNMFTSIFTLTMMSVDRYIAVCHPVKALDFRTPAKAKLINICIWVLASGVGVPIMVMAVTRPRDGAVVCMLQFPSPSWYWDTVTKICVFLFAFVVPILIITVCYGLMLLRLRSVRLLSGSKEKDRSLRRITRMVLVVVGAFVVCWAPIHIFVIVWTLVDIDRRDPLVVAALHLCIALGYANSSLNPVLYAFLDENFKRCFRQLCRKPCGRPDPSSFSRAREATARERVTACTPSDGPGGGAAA
The target of assay [9] is Beta-2 adrenergic receptor (Homo sapiens, UniProt P07550).
Beta-2 adrenergic receptor, sequence (P07550 whole entry): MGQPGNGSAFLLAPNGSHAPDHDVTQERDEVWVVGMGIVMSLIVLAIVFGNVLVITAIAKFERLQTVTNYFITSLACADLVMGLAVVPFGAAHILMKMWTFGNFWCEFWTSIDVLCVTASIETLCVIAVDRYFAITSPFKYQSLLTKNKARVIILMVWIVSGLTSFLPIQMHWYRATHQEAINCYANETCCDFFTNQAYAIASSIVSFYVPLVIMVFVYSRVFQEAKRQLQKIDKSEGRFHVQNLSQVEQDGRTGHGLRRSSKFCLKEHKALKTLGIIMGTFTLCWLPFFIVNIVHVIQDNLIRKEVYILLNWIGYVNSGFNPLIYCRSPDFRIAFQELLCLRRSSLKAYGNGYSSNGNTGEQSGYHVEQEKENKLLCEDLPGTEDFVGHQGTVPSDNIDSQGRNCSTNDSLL
Assay [10] addresses T4, 5-hydroxytryptamine receptor 1A (Homo sapiens, UniProt P08908).
T4 sequence (P08908 whole entry): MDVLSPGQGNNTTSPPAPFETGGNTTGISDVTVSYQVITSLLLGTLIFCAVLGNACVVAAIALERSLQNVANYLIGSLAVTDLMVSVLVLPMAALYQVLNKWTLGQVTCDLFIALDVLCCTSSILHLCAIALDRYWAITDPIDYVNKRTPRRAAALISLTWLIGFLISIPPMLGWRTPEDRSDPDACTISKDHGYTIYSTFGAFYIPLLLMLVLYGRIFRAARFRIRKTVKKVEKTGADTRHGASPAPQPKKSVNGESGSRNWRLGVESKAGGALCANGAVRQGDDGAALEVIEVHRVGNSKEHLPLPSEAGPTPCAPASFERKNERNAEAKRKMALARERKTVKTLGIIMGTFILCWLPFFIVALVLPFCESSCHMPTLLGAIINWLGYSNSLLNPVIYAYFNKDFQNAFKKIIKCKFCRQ
It is filed as functional, cell-based.

The target of assay [11] is T5, Estrogen receptor (Homo sapiens, UniProt P03372).
T5 sequence (P03372 whole entry): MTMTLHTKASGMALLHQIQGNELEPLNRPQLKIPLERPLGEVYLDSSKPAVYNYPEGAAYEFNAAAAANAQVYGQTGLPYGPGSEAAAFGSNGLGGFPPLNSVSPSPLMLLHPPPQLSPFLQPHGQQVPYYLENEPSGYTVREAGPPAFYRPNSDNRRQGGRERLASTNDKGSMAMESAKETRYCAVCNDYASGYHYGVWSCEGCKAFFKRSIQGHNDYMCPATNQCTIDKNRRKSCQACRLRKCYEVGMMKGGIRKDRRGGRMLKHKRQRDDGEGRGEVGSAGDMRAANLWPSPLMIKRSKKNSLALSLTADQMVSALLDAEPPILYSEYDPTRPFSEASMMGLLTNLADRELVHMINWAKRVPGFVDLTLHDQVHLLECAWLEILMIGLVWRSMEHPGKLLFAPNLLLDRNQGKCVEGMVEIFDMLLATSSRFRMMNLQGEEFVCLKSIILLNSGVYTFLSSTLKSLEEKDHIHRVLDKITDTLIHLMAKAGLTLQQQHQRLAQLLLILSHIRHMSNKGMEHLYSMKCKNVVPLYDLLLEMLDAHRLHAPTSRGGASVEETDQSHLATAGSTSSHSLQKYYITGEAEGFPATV

In assay [12] the target is 5-hydroxytryptamine receptor 2B (Homo sapiens, UniProt P41595). The class given is functional, cell-based.
5-hydroxytryptamine receptor 2B, sequence (P41595 whole entry): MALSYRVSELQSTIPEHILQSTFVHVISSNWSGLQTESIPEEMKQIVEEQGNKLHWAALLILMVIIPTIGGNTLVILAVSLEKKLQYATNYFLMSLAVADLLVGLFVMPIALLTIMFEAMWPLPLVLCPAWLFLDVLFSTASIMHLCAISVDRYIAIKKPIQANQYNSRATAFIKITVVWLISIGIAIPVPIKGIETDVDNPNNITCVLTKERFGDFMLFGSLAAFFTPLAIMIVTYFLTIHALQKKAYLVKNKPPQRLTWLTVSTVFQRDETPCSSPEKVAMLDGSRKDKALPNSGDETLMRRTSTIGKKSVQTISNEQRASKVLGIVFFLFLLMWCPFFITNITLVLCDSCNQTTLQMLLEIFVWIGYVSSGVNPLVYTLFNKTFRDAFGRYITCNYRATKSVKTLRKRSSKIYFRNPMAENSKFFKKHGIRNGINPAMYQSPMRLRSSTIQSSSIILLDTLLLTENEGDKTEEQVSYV
The target of assay [13] is Voltage-dependent L-type calcium channel subunit alpha-1C (Rattus norvegicus, UniProt P22002). It is filed as functional.

Structures are written as SMILES. Some results are limits rather than exact numbers.
Note: assay procedure not described here.

Vascular endothelial growth factor receptor 2, sequence (P35968 whole entry): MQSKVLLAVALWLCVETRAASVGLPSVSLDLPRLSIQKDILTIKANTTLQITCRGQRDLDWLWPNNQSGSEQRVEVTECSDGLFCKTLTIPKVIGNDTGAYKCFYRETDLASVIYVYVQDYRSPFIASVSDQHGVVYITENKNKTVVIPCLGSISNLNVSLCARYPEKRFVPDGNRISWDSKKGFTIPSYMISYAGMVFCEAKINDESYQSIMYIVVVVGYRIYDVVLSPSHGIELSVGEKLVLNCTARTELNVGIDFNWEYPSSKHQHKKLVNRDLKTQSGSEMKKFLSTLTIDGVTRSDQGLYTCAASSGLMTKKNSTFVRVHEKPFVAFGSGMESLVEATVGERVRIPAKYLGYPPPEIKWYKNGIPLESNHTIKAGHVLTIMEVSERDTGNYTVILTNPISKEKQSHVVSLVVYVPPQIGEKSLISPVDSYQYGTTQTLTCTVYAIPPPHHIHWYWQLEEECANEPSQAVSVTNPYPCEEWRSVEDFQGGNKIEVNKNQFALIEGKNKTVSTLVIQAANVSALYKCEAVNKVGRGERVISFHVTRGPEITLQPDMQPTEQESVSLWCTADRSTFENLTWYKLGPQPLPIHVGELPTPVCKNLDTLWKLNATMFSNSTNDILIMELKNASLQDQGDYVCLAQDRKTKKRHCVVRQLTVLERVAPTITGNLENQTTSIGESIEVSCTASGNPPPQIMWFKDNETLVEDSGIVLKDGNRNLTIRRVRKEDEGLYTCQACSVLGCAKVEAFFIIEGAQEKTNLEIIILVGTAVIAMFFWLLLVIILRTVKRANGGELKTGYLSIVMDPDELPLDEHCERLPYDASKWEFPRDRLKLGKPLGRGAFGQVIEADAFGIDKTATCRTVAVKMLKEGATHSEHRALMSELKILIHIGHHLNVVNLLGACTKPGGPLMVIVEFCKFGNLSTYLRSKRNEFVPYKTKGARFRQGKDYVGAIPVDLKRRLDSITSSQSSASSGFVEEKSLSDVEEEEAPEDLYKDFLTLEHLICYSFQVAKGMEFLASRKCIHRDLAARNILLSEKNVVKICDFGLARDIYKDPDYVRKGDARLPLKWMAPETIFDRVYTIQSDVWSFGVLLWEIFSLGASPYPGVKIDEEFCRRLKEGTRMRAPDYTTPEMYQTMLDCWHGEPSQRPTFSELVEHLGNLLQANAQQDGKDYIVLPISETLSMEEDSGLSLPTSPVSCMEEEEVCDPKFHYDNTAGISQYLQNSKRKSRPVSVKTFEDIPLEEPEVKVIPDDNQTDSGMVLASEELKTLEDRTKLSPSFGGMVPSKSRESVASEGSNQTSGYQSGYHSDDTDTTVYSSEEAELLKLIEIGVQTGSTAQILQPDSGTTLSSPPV

Regarding `N[C@@H](Cc1ccccc1)C(=O)O` [PHENYLALANINE], the AC50 in assay [1] and in [2] was more than 30 µM in each case.
As for `NC(=O)[C@@H]1CC[C@@H]2CN1C(=O)N2OS(=O)(=O)O` [AVIBACTAM], the concentration at half-maximal activity (AC50) in assay [1] and in assay [2] was more than 30 µM throughout.
Take `Cc1oc(=O)oc1COC(=O)[C@@H]1N2C(=O)[C@@H](NC(=O)[C@H](N)c3ccccc3)[C@H]2SC1(C)C` [LENAMPICILLIN]: the half-maximal activity concentration (AC50) in assay [1] and in assay [2] was more than 30 µM in each case.
Turning to `CC(C)(C)NC(=O)N[C@H](C(=O)N1C[C@H]2[C@@H]([C@H]1C(=O)NC(CC1CCC1)C(=O)C(N)=O)C2(C)C)C(C)(C)C` (stereo partly specified) [BOCEPREVIR], the AC50 in assay [1] and in assay [2] was more than 30 µM in each case.
For `CCCSc1nc(N[C@@H]2C[C@H]2c2ccc(F)c(F)c2)c2nnn([C@@H]3C[C@H](OCCO)[C@@H](O)[C@H]3O)c2n1` [TICAGRELOR], the AC50 – broadly, the concentration giving half of the maximal activity seen – is more than 30 µM in assay [1] and 0.106 µM in [2].
`CC[N+](C)(CC)CCOC(=O)C(O)(c1ccccc1)C1CCCCC1` (stereo unspecified) [OXYPHENONIUM]: the AC50 in assay [1] and in assay [2] was more than 30 µM in each case.
As for `NNCCc1ccccc1` [PHENELZINE], the AC50 in [1] and in [2] was more than 30 µM throughout.
In the case of `O=C(O)[C@@H]1C[C@@H](O)CN1`, the AC50 in assay [1] and in assay [2] was more than 30 µM each time.
As for `CC(=O)O[C@H]1Cc2ccccc2N(C(N)=O)c2ccccc21` [ESLICARBAZEPINE ACETATE], the AC50 in assay [1] and in assay [2] was more than 30 µM each time.
As to `CC(=O)OC[C@H]1O[C@@H](n2ncc(=O)[nH]c2=O)[C@H](OC(C)=O)[C@@H]1OC(C)=O` [AZARIBINE], the AC50 in assay [1] and in [2] was more than 30 µM throughout.
Regarding `CC1(CCN2CCCCC2)C(=O)CCc2ccccc21` (stereo unspecified) [NEPINALONE], the AC50 in assay [1] and in assay [2] was more than 30 µM each time.
Regarding `C=C1CC[C@H](O)C/C1=C/C=C1\CCC[C@]2(C)[C@@H]([C@H](C)CCCC(C)C)CC[C@@H]12` [CHOLECALCIFEROL], the concentration at half-maximal activity (AC50) in assay [1] is more than 30 µM; in [2] it was 14.8 µM.
With `Cc1ccc(C(=O)C(C)CN2CCCCC2)cc1` (stereo unspecified) [TOLPERISONE], the AC50 in assay [1] and in [2] was more than 30 µM in each case.
For `CCC[C@H](N[C@@H](C)C(=O)N1[C@H](C(=O)O)C[C@@H]2CCCC[C@@H]21)C(=O)OCC` [PERINDOPRIL], the AC50 in [1] and in assay [2] was more than 30 µM throughout.
In the case of `CC(O)(P(=O)(O)O)P(=O)(O)O` [ETIDRONIC ACID], the concentration at half-maximal activity (AC50) in [1] and in [2] was more than 30 µM throughout.
As to `COc1ccc(OC)c(C(O)C(C)N)c1` (stereo unspecified) [METHOXAMINE], the AC50 in assay [1] and in [2] was more than 30 µM each time.
With `CC1(C)S[C@@H]2[C@H](/N=C/N3CCCCCC3)C(=O)N2[C@H]1C(=O)O` [AMDINOCILLIN], the AC50 in [1] and in [2] was more than 30 µM throughout.
Consider `O=C(O)COCCN1CCN(C(c2ccccc2)c2ccc(Cl)cc2)CC1` (stereo unspecified) [CETIRIZINE], for which the AC50 in [3] was more than 10 µM; in assay [4], more than 30 µM; in [5], more than 30 µM; in assay [6] it was more than 30 µM; in assay [7], more than 30 µM; in assay [8] it was more than 30 µM. The half-maximal activity concentration (AC50) was more than 30 µM in assay [1]; more than 10 µM in [9]; more than 10 µM in assay [10]; more than 30 µM in assay [2]; more than 30 µM in [11].
As for `CN1CCCN(C(c2ccccc2)c2ccc(Cl)cc2)CC1` (stereo unspecified) [HOMOCHLORCYCLIZINE], the AC50 in assay [1] and in assay [2] was more than 30 µM each time.
As for `C[C@H](N[C@@H](CCc1ccccc1)C(=O)O)C(=O)N1Cc2ccccc2C[C@H]1C(=O)O`, the AC50 in assay [1] and in [2] was more than 30 µM each time.
Take `CCCn1cnc2c1c(=O)n(CCCCC(C)=O)c(=O)n2C` [PROPENTOFYLLINE]: the AC50 in assay [1] and in [2] was more than 30 µM each time.
Turning to `Cc1cc2c(cc1S(N)(=O)=O)S(=O)(=O)CCC2`, the AC50 in assay [1] and in assay [2] was more than 30 µM in each case.
With `CC(=O)OCC(=O)[C@@]1(O)CC[C@H]2[C@@H]3CCC4=CC(=O)CC[C@]4(C)[C@H]3[C@@H](O)C[C@@]21C` [HYDROCORTISONE ACETATE], the AC50 in assay [1] and in [2] was more than 30 µM in each case.
For the compound `COC(=O)[C@H]1[C@H]2C[C@@H]3c4[nH]c5cc(OC)ccc5c4CCN3C[C@H]2C[C@@H](OC(=O)c2cc(OC)c(OC)c(OC)c2)[C@@H]1OC` [RESERPINE], the AC50 in assay [3] is more than 10 µM; in [12] it was more than 10 µM; in [4], more than 10 µM; in assay [5], more than 10 µM; in assay [7], more than 30 µM; in [13] it was 8.83 µM. In addition, the AC50 in assay [8] is more than 30 µM; in [1], more than 30 µM; in assay [9] it was more than 10 µM; in assay [10] it was more than 10 µM; in assay [2] it was 17.7 µM.
